This note sets out measurements from publication PMC8151276, “An Integrated Approach toward NanoBRET Tracers for Analysis of GPCR Ligand Engagement” (Molecules, 2021).

One assay concerns the target T1, ADORA3 (Homo sapiens, UniProt P0DMS8).
T1 construct: purchased Promega (in-house HiBiT-GPCR construct library, NanoBRET)
T1 sequence (P0DMS8 1-318): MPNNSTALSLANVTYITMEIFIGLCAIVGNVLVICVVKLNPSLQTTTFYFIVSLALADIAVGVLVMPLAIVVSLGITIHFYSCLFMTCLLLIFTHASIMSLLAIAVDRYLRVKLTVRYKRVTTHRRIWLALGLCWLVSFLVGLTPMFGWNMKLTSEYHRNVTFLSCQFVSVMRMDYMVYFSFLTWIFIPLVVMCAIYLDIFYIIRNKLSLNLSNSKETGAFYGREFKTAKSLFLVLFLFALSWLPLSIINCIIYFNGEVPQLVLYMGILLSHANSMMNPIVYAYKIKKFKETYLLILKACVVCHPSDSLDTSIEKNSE
In words: NanoBRET screen HiBiT-ADORA3 in HEK293. It counts as binding. As for the experimental part: (§1) Each tracer candidate was screened across the entire library of HiBiT-GPCR constructs using NanoBRET as the detection modality. As depicted in Figure 4A, the specificity of interactions was evaluated through decrease in BRET due to competitive displacement of a bound tracer by excess parental compound. Each tracer was analyzed for binding to each HiBiT-GPCR fusion in the absence and in the presence of competing parental compound. Briefly, HEK293 cells were transfected with HiBiT-GPCR constructs diluted into promoterless DNA to reduce expression and maximize translocation to the cell surface. Each tracer candidate was then screened at concentrations of 1 μM and 0.1 μM across cells expressing these fusions. Cells were treated for 1.5 h with tracer either alone or in the presence of 20 μM competing parental compound (i.e., control). BRET was measured upon addition of purified LgBiT and subsequent complementation with HiBiT genetically fused to a GPCR. The specificity of interactions was assessed through a decrease in BRET signal due to competitive displacement of the bound tracer. To further gauge the robustness of these interactions, the fold response over the control (i.e., BRETtracer/BRETcontrol) was calculated. We chose a 1.5-fold response, which translates to ≥7-fold signal over noise as the minimal threshold required to score an interaction as positive. […]. Below we highlight the screening results obtained for our exemplary fluorescent tracers based on Clozapine, Amitriptyline and AZD1283.
(§2) HiBiT-GPCR DNA constructs were diluted in 10 mM Tris pH 8 to a final concentration of 0.01 μg/μL, arrayed in 96-well plates and stored at −20 °C. For transfection, HEK293 cells were suspended in Opti-MEM (without phenol red) supplemented with 2% fetal bovine serum (Seradigm) and 100 units/mL penicillin–streptomycin (Gibco) at a final concentration of 220,000 cells/mL and dispensed into white 96-well plates at 90 μL/well. Subsequent transfections and screens were carried using an Agilent Bravo Automated Liquid Handling Platform. First, the 96-well HiBiT DNA arrays were diluted 25-fold in Opti-MEM (without serum or phenol red) to a final concentration of 0.0004 μg/μL and 20 μL of the diluted DNAs were transferred into new 96-well plates. Next, promoterless carrier DNA (1 μg/μL) was diluted 25-fold (0.04 μg/μL) and then dispensed into the diluted arrays at 20 μL/well. Following brief mixing, Viafect transfection reagent (Promega) diluted 16-fold into Opti-MEM was dispensed into the plates at 40 μL/well. After mixing by pipetting, plates were incubated for 10 min on the pipetting station deck. The DNA-transfection reagent complexes were then added to plates containing cells. To facilitate the screen, 10 μL of DNA-transfection reagent complexes were added in duplicates to the top 4 and bottom 4 rows, resulting in two identical 48-well arrays per plate. Plates with transfected cells were incubated for 18–20 h at 37 °C/5% CO2. A screen of each tracer across the entire library using two different concentrations requires duplicate plates of transfected cells. Depending on the number of tracers being screened, transfections can be scaled up using the same ratios. The next day, for each tracer, four 20× screening solutions in tracer dilution buffer (Promega) were prepared: two duplicates at final concentration of 20 μM and two duplicates at a final concentration of 2 μM. A competing unmodified compound was added to one of each duplicate at a final concentration of 400 μM. The four resulting solutions were diluted 4-fold in Opti-MEM without serum or phenol red to generate 5× solutions (5 µM and 0.5 µM tracer +/− 100 μM competing compound). To screen the library, a BioTek MultiFlo FX liquid dispenser was used to dispense 22.5 µL of tracer solution to the top 4 rows and 22.5 µL tracer + competing compound solution to the 4 bottom rows. Plates were briefly mixed on an orbital shaker and incubated for 1.5 h at room temperature. […]

Another assay deals with T2, NPFFR2 (Homo sapiens, UniProt Q9Y5X5).
T2 construct: purchased Promega (in-house HiBiT-GPCR construct library, NanoBRET)
The assay is described as follows: NanoBRET screen HiBiT-NPFFR2 in HEK293. It counts as binding. On the procedure: as §1, §2
On the technique in general: Bioluminescence resonance energy transfer reports proximity on the nanometre scale.

T2 sequence (Q9Y5X5 whole entry): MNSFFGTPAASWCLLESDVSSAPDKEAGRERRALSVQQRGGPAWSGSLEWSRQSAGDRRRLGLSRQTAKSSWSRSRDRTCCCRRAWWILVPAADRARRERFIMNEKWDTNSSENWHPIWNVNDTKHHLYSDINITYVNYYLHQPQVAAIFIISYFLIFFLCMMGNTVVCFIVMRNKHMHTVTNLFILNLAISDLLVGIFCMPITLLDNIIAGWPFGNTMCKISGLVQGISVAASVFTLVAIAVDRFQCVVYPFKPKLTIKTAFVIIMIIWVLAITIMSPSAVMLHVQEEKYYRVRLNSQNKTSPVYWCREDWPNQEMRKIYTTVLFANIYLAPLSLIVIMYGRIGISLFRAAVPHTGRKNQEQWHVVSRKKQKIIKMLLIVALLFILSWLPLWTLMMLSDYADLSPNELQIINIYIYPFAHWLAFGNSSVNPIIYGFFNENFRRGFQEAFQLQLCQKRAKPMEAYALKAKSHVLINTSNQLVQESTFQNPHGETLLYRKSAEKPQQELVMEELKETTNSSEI

With `O=C(CCOCCOCCOCCOCCNC(=O)CCc1ccc2n1[B-](F)(F)[N+]1=C(c3ccc[nH]3)C=CC1=C2)NCCCN1CCN(C2=Nc3ccccc3Oc3ccc(Cl)cc32)CC1` [Loxapine-a-2-NB590], the “NanoBRET Fold Response” value on ADORA3 (ADORA3, tracer 0.1μM) is 1.04; on ADORA3 (ADORA3, tracer 1μM), 0.78; on NPFFR2 (NPFFR2, tracer 0.1μM), 1.05; at NPFFR2 (NPFFR2, tracer 1μM), 1.03.
Consider `CCCn1c(=O)c2[nH]c(-c3ccc(OCC(=O)NCCNC(=O)CCOCCNC(=O)c4ccc(CNC(=O)CCc5ccc6n5[B-](F)(F)[N+]5=C(c7ccc[nH]7)C=CC5=C6)cc4)cc3)nc2n(CCC)c1=O` [XAC-3-NB590], for which the “NanoBRET Fold Response” value worked out at 12.13 on ADORA3 (ADORA3, tracer 0.1μM); 6.72 on ADORA3 (ADORA3, tracer 1μM); 1.02 on NPFFR2 (NPFFR2, tracer 0.1μM); 1.02 at NPFFR2 (NPFFR2, tracer 1μM).
Regarding `CN(C)CCC=C1c2ccccc2CCc2ccc(C(=O)NCCNC(=O)CCOCCOCCOCCOCCNC(=O)CCc3ccc4n3[B-](F)(F)[N+]3=C(c5ccc[nH]5)C=CC3=C4)cc21` [Amitriptyline-a-2-NB590], the “NanoBRET Fold Response” value at ADORA3 (tracer at 0.1μM) is 1.00; at ADORA3 (tracer at 1μM), 1.07.
`COc1ccccc1N1CCN(CCCCN2C(=O)c3ccc(CNC(=O)CCOCCOCCOCCOCCNC(=O)CCc4ccc5n4[B-](F)(F)[N+]4=C(c6ccc[nH]6)C=CC4=C5)cc3C2=O)CC1` [NAN-190-2-NB590]: the “NanoBRET Fold Response” value at ADORA3 (ADORA3, tracer 0.1μM) is on record as 0.96; at ADORA3 (ADORA3, tracer 1μM), 0.89; on NPFFR2 (NPFFR2, tracer 0.1μM) it was 0.97.
`O=C(CCc1ccc2n1[B-](F)(F)[N+]1=C(c3ccc[nH]3)C=CC1=C2)NCc1ccc(C(=O)NCCOCCOCCNCC(O)COc2cccc3ccccc23)cc1` (centres unmarked) [Propranolol-3-NB590]: the “NanoBRET Fold Response” value at ADORA3 (ADORA3, 0.1μM) came to 1.04; on ADORA3 (ADORA3, 1μM) it was 0.98; on NPFFR2 (NPFFR2, 0.1μM), 1.01; on NPFFR2 (NPFFR2, 1μM) it was 1.01.
With `COc1ccccc1N1CCN(CCCCN2C(=O)c3ccc(CNC(=O)CCOCCNC(=O)c4ccc(CNC(=O)CCc5ccc6n5[B-](F)(F)[N+]5=C(c7ccc[nH]7)C=CC5=C6)cc4)cc3C2=O)CC1` [NAN-190-3-NB590], the “NanoBRET Fold Response” value on ADORA3 (ADORA3, tracer 0.1μM) stood at 0.97; at ADORA3 (ADORA3, tracer 1μM), 1.19; on NPFFR2 (NPFFR2, tracer 0.1μM), 1.02; on NPFFR2 (NPFFR2, tracer 1μM), 1.01.
As for `O=C(CCc1ccc2n1[B-](F)(F)[N+]1=C(c3ccc[nH]3)C=CC1=C2)NCc1ccc(C(=O)NCCOCCC(=O)N[C@@H]2CC[C@@]3(O)[C@H]4Cc5ccc(O)c6c5[C@@]3(CCN4CC3CC3)[C@H]2O6)cc1` [Naltrexone-3-NB590], the “NanoBRET Fold Response” value at ADORA3 (ADORA3, tracer 0.1μM) is 0.77; on ADORA3 (ADORA3, tracer 1μM) it was 0.84; at NPFFR2 (NPFFR2, tracer 0.1μM), 1.01; at NPFFR2 (NPFFR2, tracer 1μM), 0.95.
As for `CCOC(=O)c1cc(C#N)c(N2CCC(C(=O)NS(=O)(=O)Cc3ccccc3/C=C/C(=O)NCCNC(=O)CCc3ccc4n3[B-](F)(F)[N+]3=C(c5ccc[nH]5)C=CC3=C4)CC2)nc1C` [AZD1283-1-NB590], the “NanoBRET Fold Response” value is on record as 1.11 on ADORA3 (ADORA3, 0.1μM); 1.09 at ADORA3 (ADORA3, 1μM); 1.01 at NPFFR2 (NPFFR2, 0.1μM); 1.15 on NPFFR2 (NPFFR2, 1μM).
On to `COc1ccc2[nH]c(-c3ccc(CNC(=O)CCOCCOCCOCCOCCNC(=O)CCc4ccc5n4[B-](F)(F)[N+]4=C(c6ccc[nH]6)C=CC4=C5)cc3)c(CCNC(C)=O)c2n1` [AzomelatoninICO9-2-NB590], for which the “NanoBRET Fold Response” value at ADORA3 (0.1μM tracer) came to 0.91; at ADORA3 (1μM tracer), 0.97; on NPFFR2 (0.1μM tracer), 0.91; on NPFFR2 (1μM tracer), 1.06.
For the compound `CC(C)N(CC[C@H](c1ccccc1)c1cc(CCNC(=O)CCOCCOCCOCCOCCNC(=O)CCc2ccc3n2[B-](F)(F)[N+]2=C(c4ccc[nH]4)C=CC2=C3)ccc1O)C(C)C` [Tolterodine-2-NB590], the “NanoBRET Fold Response” value at ADORA3 (ADORA3, tracer 0.1μM) stood at 1.12; on ADORA3 (ADORA3, tracer 1μM), 1.00; on NPFFR2 (NPFFR2, tracer 0.1μM), 0.98; at NPFFR2 (NPFFR2, tracer 1μM), 1.06.
`CN1CCN(C2=Nc3cc(Cl)ccc3N(CC(=O)NCCOCCOCCOCCOCCNC(=O)CCc3ccc4n3[B-](F)(F)[N+]3=C(c5ccc[nH]5)C=CC3=C4)c3ccccc32)CC1` [Clozapine-c-2-NB590]: the “NanoBRET Fold Response” value worked out at 1.05 at ADORA3 (ADORA3, 0.1μM tracer); 0.81 at ADORA3 (ADORA3, 1μM tracer); 0.98 on NPFFR2 (NPFFR2, 0.1μM tracer); 0.99 on NPFFR2 (NPFFR2, 1μM tracer).
`N#CN=C(NCCCOc1cccc(CN2CCCCC2)c1)NCCNC(=O)CCOCCOCCOCCOCCNC(=O)CCc1ccc2n1[B-](F)(F)[N+]1=C(c3ccc[nH]3)C=CC1=C2` [Aminopotentidine-2-NB590]: the “NanoBRET Fold Response” value on ADORA3 (ADORA3, tracer 0.1μM) is reported as 1.16; on ADORA3 (ADORA3, tracer 1μM), 1.03; on NPFFR2 (NPFFR2, tracer 0.1μM) it was 0.98; at NPFFR2 (NPFFR2, tracer 1μM) it was 1.02.
As for `COc1ccc2c(n1)c(CCNC(C)=O)cn2CCNC(=O)CCc1ccc2n1[B-](F)(F)[N+]1=C(c3ccc[nH]3)C=CC1=C2` [Azamelatonin-1-NB590], the “NanoBRET Fold Response” value is 1.01 at ADORA3 (0.1μM tracer), 1.02 on ADORA3 (1μM tracer), 1.16 on NPFFR2 (0.1μM tracer) and 0.97 on NPFFR2 (1μM tracer).
Turning to `CN(CCC=C1c2ccccc2CCc2ccccc21)C(=O)CCOCCOCCOCCOCCNC(=O)CCc1ccc2n1[B-](F)(F)[N+]1=C(c3ccc[nH]3)C=CC1=C2` [Amitriptyline-e-2-NB590], the “NanoBRET Fold Response” value at ADORA3 (tracer at 1μM) is on record as 0.99.
For `CC(C)N(CC[C@H](c1ccccc1)c1cc(CCNC(=O)c2ccc(CNC(=O)CCc3ccc4n3[B-](F)(F)[N+]3=C(c5ccc[nH]5)C=CC3=C4)cc2)ccc1O)C(C)C` [Tolterodine-BZ-NB590], the “NanoBRET Fold Response” value at ADORA3 (ADORA3, tracer 0.1μM) is 0.58; at ADORA3 (ADORA3, tracer 1μM) it was 0.71; on NPFFR2 (NPFFR2, tracer 0.1μM) it was 1.00; at NPFFR2 (NPFFR2, tracer 1μM), 1.02.
For `O=C(CCc1ccc2n1[B-](F)(F)[N+]1=C(c3ccc[nH]3)C=CC1=C2)NCCOCCOCCNC(=O)OCCOCCN1CCN(C2=Nc3ccccc3Sc3ccccc32)CC1` [Quetiapine-a-2-NB590], in that order: 0.98, 0.82, 0.99 and 0.97.
For `Cc1cc2c(s1)Nc1ccccc1N=C2N1CCN(CCCNC(=O)CCOCCOCCOCCOCCNC(=O)CCc2ccc3n2[B-](F)(F)[N+]2=C(c4ccc[nH]4)C=CC2=C3)CC1` [Olanzapine-a-2-NB590], the “NanoBRET Fold Response” value on ADORA3 (ADORA3, tracer 0.1μM) amounted to 0.94; on ADORA3 (ADORA3, tracer 1μM), 1.13; on NPFFR2 (NPFFR2, tracer 0.1μM) it was 0.98; at NPFFR2 (NPFFR2, tracer 1μM), 1.04.
